The text below walks through data of patent US20210161855A1, “5-LIPOXYGENASE ANTAGONISTS” (INSTITUTO DE MEDICINA MOLECULAR JOÃO LOBO ANTUNES, priority 2017, published 2021).

Assay [1] concerns the target T1, 5-LO (Homo sapiens, UniProt P09917).
T1 sequence (P09917 1-674): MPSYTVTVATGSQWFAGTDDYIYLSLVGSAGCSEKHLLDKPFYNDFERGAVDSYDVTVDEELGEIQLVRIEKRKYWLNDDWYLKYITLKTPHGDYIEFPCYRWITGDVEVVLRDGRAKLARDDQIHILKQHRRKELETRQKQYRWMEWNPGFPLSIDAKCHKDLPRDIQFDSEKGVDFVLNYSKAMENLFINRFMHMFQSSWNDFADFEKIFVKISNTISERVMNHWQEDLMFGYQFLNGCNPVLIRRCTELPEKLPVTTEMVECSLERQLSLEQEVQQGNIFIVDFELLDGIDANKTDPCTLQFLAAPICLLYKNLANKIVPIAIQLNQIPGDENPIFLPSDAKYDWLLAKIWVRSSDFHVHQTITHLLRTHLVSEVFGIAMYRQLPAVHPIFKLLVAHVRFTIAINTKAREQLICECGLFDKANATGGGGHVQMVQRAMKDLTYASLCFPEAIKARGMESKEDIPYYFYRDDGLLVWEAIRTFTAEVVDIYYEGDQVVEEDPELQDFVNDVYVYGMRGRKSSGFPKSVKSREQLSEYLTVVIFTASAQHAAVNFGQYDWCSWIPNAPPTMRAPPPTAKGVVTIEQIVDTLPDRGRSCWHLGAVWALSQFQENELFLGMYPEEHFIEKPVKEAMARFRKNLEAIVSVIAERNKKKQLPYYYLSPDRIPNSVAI
Nature of the assay: 5-LO activity in neutrophil homogenates. It is filed as biochemical. The arrangement: endogenous in cells; host or cells: neutrophils isolated from peripheral blood of healthy adult volunteers; intact or sonicated homogenates. The note with it: neutrophil homogenates, with or without 1 mM DTT. Here is the method:
Peripheral blood (University Hospital Jena, Germany) was withdrawn from healthy adult volunteers with consent that had not taken any anti-inflammatory drugs during the last 10 days, by venipuncture in heparinized tubes (16 IE heparin/mL blood). The blood was centrifuged at 4000 g for 20 min at 20° C. for preparation of leukocyte concentrates. Leukocyte concentrates were then subjected to dextran sedimentation and centrifugation on lymphocyte separation medium (LSM 1077, PAA, Colbe, Germany). Contaminating erythrocytes of pelleted neutrophils were removed by hypotonic Iysis. Neutrophils were then washed twice in ice-cold PBS and finally resuspended in PBS pH 7.4 containing 1 mg/mL glucose or in PBS pH 7.4 containing 1 mg/mL glucose plus 1 mM CaCl2 (PGC buffer) (purity>96-97%).
For analysis of 5-LO product formation in corresponding homogenates, neutrophils were resuspended in PBS containing 1 mM EDTA for 5 min at 4° C. and sonicated (4×10 s, 4° C.). Homogenates, corresponding to 5×10^6 cells/mL, were incubated with the test compounds or vehicle (0.1% DMSO) with or without 1 mM DTT for 15 min at 4° C., pre-warmed for 30 s at 37° C., and the reaction was started by the addition of 2 mM CaCl2 plus the indicated concentrations of AA (routinely 20 μM). The reaction was stopped after 10 min and the samples were analyzed as described for intact cells above.
Data are expressed as mean±S.E.M. IC50 values were calculated from averaged measurements at 6 different concentrations of the compound by nonlinear regression using GraphPad Prism software (San Diego, Calif.) one site binding competition. Statistical evaluation of the data was performed by one-way ANOVA followed by a Tukey-Kramer post-hoc test for multiple comparisons respectively. A p value<0.05 (*) was considered significant.

Assay [2] deals with TRPM8 (Homo sapiens, UniProt Q7Z2W7). Nature of the assay: TRPM8 channel antagonism, functional assay. It counts as cell-based. The note with it: 150 μM.
Chain of TRPM8 (Q7Z2W7 whole entry, species assumed): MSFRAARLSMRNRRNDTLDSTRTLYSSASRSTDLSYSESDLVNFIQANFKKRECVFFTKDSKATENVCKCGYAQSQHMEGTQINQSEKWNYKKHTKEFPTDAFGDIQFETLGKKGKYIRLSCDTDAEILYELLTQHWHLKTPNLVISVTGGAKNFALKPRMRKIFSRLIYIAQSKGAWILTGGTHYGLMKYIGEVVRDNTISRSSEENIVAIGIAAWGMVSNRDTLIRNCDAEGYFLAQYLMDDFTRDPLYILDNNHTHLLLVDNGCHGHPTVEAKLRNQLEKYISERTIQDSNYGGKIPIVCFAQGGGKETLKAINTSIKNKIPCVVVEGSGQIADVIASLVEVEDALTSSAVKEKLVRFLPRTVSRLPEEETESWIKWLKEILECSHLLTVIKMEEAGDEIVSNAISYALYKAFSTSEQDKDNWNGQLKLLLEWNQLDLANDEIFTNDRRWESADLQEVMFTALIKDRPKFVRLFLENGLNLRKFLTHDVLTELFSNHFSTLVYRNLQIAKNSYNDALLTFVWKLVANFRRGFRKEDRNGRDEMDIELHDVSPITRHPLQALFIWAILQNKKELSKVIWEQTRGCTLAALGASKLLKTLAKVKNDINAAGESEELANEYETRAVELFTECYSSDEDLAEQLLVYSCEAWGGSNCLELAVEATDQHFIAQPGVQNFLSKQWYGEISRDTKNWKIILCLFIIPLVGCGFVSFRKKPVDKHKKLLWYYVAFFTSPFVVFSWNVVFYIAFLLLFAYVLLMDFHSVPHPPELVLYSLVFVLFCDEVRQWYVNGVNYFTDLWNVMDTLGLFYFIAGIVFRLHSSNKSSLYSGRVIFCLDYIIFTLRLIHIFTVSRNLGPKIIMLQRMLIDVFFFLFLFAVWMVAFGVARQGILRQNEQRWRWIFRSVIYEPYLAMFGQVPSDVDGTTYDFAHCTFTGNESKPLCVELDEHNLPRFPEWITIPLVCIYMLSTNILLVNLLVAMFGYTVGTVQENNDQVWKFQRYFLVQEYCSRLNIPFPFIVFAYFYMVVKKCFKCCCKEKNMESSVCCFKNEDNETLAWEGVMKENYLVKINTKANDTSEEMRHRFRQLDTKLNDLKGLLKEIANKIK
For assay [3], the target named is T2, 5-lipoxygenase (5-LO) (Homo sapiens, UniProt P09917).
T2 sequence (P09917 1-674): T1 sequence (P09917 1-674)
The assay is described as follows: 5-LO inhibition assay, Method A (Cerep), cell-free functional. The note with it: 150 μM; read-out: 5-LO inhibition at the assayed concentration. It counts as biochemical. The method, then:
Method A: 5-Lipoxygenase (5-LO), 12-lipoxygenase (12-LO) and 15-lipoxygenase-2 (15-LO-2) inhibition assays were performed at Cerep, SA (Celle l'Evescault, France) on a fee-for-service basis (Ref 0772^36, 0883^37 and 0893^38, respectively), as described in Table 1.

Assay [4] has as its target T3, EP3 (Homo sapiens, UniProt P43115).
T3 sequence (P43115 1-390): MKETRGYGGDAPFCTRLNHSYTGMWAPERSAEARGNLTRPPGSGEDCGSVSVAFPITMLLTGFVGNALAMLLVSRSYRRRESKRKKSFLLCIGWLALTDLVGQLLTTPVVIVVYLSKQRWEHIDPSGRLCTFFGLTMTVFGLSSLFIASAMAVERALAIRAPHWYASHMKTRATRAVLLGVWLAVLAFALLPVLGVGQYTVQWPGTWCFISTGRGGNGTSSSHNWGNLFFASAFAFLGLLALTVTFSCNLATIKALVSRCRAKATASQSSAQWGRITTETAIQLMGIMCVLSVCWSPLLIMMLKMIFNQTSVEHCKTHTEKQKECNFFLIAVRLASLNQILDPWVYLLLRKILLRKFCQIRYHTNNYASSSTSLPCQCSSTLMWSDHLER
Nature of the assay: Prostanoid EP3 receptor antagonism, functional assay. It counts as cell-based. As to conditions: 150 μM.

The target of assay [5] is TRPV1 (Homo sapiens, UniProt Q8NER1). The assay is described as follows: TRPV1 channel antagonism, functional assay. It is filed as cell-based. As to conditions: 150 μM.
Chain of TRPV1 (Q8NER1 whole entry, species assumed): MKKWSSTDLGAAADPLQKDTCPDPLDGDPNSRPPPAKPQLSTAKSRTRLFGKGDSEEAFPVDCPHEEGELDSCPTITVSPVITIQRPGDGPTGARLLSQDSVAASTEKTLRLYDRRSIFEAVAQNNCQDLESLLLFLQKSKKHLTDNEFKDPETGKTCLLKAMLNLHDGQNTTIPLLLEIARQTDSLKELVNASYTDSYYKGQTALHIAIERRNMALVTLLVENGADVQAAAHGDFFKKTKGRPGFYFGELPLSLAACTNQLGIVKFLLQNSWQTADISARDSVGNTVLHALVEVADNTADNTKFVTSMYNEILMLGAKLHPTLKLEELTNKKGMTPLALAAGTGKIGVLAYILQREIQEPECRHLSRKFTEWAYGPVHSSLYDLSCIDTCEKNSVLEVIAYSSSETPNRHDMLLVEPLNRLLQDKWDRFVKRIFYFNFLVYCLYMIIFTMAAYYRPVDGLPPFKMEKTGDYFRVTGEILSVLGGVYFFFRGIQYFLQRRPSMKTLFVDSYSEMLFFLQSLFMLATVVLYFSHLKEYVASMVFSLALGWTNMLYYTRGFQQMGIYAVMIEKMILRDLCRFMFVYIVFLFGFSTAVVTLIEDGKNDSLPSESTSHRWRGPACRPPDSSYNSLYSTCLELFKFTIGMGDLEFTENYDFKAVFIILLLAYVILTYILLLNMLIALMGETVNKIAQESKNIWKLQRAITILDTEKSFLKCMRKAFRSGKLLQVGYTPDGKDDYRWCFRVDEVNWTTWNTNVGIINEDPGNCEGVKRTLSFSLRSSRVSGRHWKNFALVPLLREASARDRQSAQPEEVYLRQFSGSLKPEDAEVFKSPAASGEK
The target in assay [6] is EP4 (Homo sapiens, UniProt P35408). Nature of the assay: Prostanoid EP4 receptor antagonism, functional assay. It counts as cell-based. The note with it: 150 μM.
Chain of EP4 (P35408 whole entry): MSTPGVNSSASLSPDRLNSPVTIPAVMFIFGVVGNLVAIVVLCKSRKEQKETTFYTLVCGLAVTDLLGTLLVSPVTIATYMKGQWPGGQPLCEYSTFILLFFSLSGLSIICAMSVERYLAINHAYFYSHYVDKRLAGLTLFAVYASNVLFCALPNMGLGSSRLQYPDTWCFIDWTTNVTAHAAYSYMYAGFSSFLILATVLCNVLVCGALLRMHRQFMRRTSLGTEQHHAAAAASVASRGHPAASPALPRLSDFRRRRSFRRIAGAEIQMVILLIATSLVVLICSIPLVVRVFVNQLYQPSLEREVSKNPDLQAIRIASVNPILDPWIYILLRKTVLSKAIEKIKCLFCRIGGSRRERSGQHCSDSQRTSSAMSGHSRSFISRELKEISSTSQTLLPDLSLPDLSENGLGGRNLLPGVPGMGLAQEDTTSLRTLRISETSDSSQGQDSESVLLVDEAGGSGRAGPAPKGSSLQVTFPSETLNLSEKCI

For `CC(c1cc2ccccc2s1)N(O)C(N)=O` (stereo not drawn) [zileuton, reference compound], the “Dependence of inhibition on DTT” value in assay [1] is “independent of DTT”.

The compound `CC(C)=CCC1=C(O)C(=O)c2ccccc2C1=O` [Compound 2, 2-hydroxy-3-(3′-methyl-2′-butenyl)-1,4-naphthoquinone] registered a TRPM8 antagonist effect in assay [2] of 91%. Moreover, the inhibition at 150 µM in assay [3] turned out to be 87%. For the same compound, the EP3 antagonist effect in assay [4] is 50%. For the same compound, the TRPV1 antagonist effect in assay [5] is reported as 65%. Besides, the EP4 antagonist effect in assay [6] amounted to 56%.
